We go through two compounds from patent publication US8101663B2, “Polymorphs of suberoylanilide hydroxamic acid” (Merck HDAC Research, LLC, priority 2002, dated 2012).

Data set [1] relates to murine erythroleukemia cells (MELC). As to conditions: without continuing drug exposure; cited from earlier work.
Data set [2] has as its system solid tumors, Hodgkin's or non-Hodgkin's lymphomas, leukemia. Put plainly: Anti-tumor response in patients on oral SAHA. The format is in vivo. From the text: (§1) In another experiment, twenty-five patients with solid tumors have been enrolled onto arm A, thirteen patients with Hodgkin's or non-Hodgkin's lymphomas have been enrolled onto arm B, and one patient with acute leukemia and one patient with myelodysplastic syndrome have been enrolled onto arm C, as shown in Table 4.
Thirteen patients continued treatment for 3-12 months with responding or stable disease: thyroid (n=3), sweat gland (n=1), renal (n=2), larynx (n=1), prostate (n=1), Hodgkin's lymphoma (n=2), non-Hodgkin's lymphoma (n=2), and leukemia (n=1).
Six patients had tumor shrinkage on CT scans. Three of these six patients meet the criteria of partial response (one patient with metastatic laryngeal cancer and two patients with non-Hodgkin's lymphomas). These partial responses occurred at the dose levels of 400 mg BID (n=2) and 600 mg QD (n=1).

The nature of data set [3]: Serum plasma levels of SAHA after IV and oral dosing (HPLC assay, LCMS using a deuterated standard). Format: in vivo, humans. As to conditions: human. As to the method: Objectives: To define a safe daily oral regimen of SAHA that can be used in Phase II studies. In addition, the pharmacokinetic profile of the oral formulation of SAHA was be evaluated. The oral bioavailability of SAHA in humans in the fasting vs. non-fasting state and anti-tumor effects of treatment were also monitored. Additionally, the biological effects of SAHA on normal tissues and tumor cells were assessed and responses with respect to levels of histone acetylation were documented.
Patients: Patients with histologically documented advanced stage, primary or metastatic adult solid tumors that are refractory to standard therapy or for which no curative standard therapy exists. Patients must have a Karnofsky Performance Status of ≧70%, and adequate hematologic, hepatic and renal function. Patients must be at least four weeks from any prior chemotherapy, radiation therapy or other investigational anticancer drugs.
Dosing Schedule: On the first day, patients were first treated with 200 mg of intravenously-administered SAHA. Starting on the second day, patients were treated with daily doses of oral SAHA according to Table 1. Each cohort received a different dose of SAHA. “QD” indicates dosing once a day; “Q12 hours” indicates dosing twice a day. For example, patients in Cohort IV received […] of SAHA per day. Doses were administered to patients daily and continuously. Blood samples were taken on day one and on day 21 of oral treatment. Patients were taken off oral SAHA treatment due to disease progression, tumor regression, unacceptable side effects, or treatment with other therapies.
Cmax is the maximum concentration of SAHA observed after administration. IV SAHA was administered at 200 mg infused over two hours. The oral SAHA was administered in a single capsule at 200 mg. Tables 2 and 3 summarize the results of an HPLC assay (LCMS using a deuterated standard) that quantitates the amount of SAHA in the blood plasma of the patients versus time, using acetylated histone-4 (α-AcH4) as a marker.

Data set [4] concerns acetylated histones in peripheral mononuclear cells. Nature of the data set: Histone acetylation in peripheral blood mononuclear cells after SAHA capsules (anti-acetylated histone H3 antibody). The format is in vivo, patients. The settings on record: 400 mg per day dose level, preliminary analysis. As to the method: Peripheral blood mononuclear cells were collected pre-therapy, immediately post-infusion and between 2-10 hours after oral ingestion of the SAHA capsules to assess the effect of SAHA on the extent of histone acetylation in a normal host cell. Histones were isolated and probed with anti-acetylated histone (H3) antibody followed by HRP-secondary antibody.

The format of data set [5] is in vivo, patients. As to conditions: once a day, continuous.
Text: as §1
Among eleven patients treated in Cohort II, one patient experienced the DLT of grade 3 diarrhea and grade 3 dehydration during the first treatment cycle. Nine patients were entered into Cohort III. Two patients were inevaluable for the 28-day toxicity assessment because of early study termination due to rapid progression of disease. Of the seven remaining patients, five experienced DLT during the first treatment cycle: diarrhea/dehydration (n=1), fatigue/dehydration (n=1), anorexia (n=1), dehydration (n=1) and anorexia/dehydration (n=1). These five patients recovered in approximately one week after the study drug was held. They were subsequently dose reduced to 400 mg QD which appeared to be well tolerated. The median days on 400 mg BID for all patients in Cohort III was 21 days. […] Following protocol amendment, accrual was continued in cohort IV at a dose of 600 mg once a day. Of the seven patients enrolled onto cohort IV, two were inevaluable for the 28-day toxicity assessment because of early study termination due to rapid progression of disease. […]

In data set [6] the test system is carcinogen-induced (N-methylnitrosourea) mammary tumors. The settings on record: rats, SAHA in the diet over 130 days; cited from earlier work.
Data set [7] in a line: Interim pharmacokinetic analysis of oral SAHA, dose escalation study. The format is in vivo, patients. As for the experimental part: as §1
The interim pharmacokinetic analysis was based on 18 patients treated on the dose levels of 200 mg QD, 400 mg QD, and 400 mg BID. […] Overall, the fraction of AUCinf due to extrapolation was 1% or less.

Setting [8] is: iv, 200 mg, Patient #1, IV, 200 mg infused over two hours.
The mark [9] stands for this setting: iv, 200 mg, Patient #2, IV, 200 mg infused over two hours.
The mark [10] stands for this setting: po, 200 mg, Patient #1, oral (fasting), single capsule 200 mg.
[11] abbreviates: po, 200 mg, Patient #1, oral (nonfasting), single capsule 200 mg.
The mark [12] stands for this setting: po, 200 mg, Patient #2, oral (fasting), single capsule 200 mg.
Where [13] appears, read: po, 200 mg, Patient #2, oral (nonfasting), single capsule 200 mg.

Values joined by “and” are separate entries in the source; they are usually repeats but may differ in a detail not shown here. Equal entries are not always repeated.

`CC(=O)NCCCCCCNC(C)=O` [HMBA, N,N′-hexamethylene bisacetamide]: the “Minimum duration of continuous exposure required to induce differentiation in a substantial portion (>20%) of the population” value in data set [1] is listed as “about 36 hours”.

Turning to `O=C(CCCCCCC(=O)Nc1ccccc1)NO` [SAHA, suberoylanilide hydroxamic acid], the “Patients meeting the criteria of partial response” value in data set [2] (dose levels 400 mg BID (n=2) and 600 mg QD (n=1), laryngeal cancer, non-Hodgkin's lymphomas) is recorded as “Three”. For the same compound, the “Patients with tumor shrinkage on CT scans” value in data set [2] (oral SAHA) is “Six”. Besides, the “Patients who continued treatment for 3-12 months with responding or stable disease” value in data set [2] (oral SAHA, 40 patients enrolled) was “Thirteen”. In addition, the half-life (usually the time needed for the level to fall by half in the phase considered) in data set [3] (Patient #2, oral (fasting), single capsule 200 mg) turned out to be 1.37 h; in data set [3] (setting [8]) it was 0.333 h; in data set [3] (setting [9]), 0.35 h; in data set [3] (setting [10]), 1.33 h; in data set [3] (setting [11]) it was 1.07 h; in data set [3] (setting [13]) it was 1.55 h. Besides, in data set [7] (human, plasma, oral, across dose groups 200 mg QD, 400 mg QD, 400 mg BID, fasting or with food, 18 patients, read-out: Mean estimates for apparent half-life), the half-life was 1.02 to 1.9 h. The exposure (AUC) (usually the area under the concentration-time curve, a measure of exposure) in data set [3] (setting [8]) is 2550 ng·h/mL; in data set [3] (setting [9]), 1800 ng·h/mL; in data set [3] (setting [10]) it was 417 ng·h/mL; in data set [3] (setting [11]), 983 ng·h/mL; in data set [3] (setting [12]), 1050 ng·h/mL; in data set [3] (setting [13]) it was 998 ng·h/mL. In addition, the Cmax – broadly, the maximum level reached in the sampled fluid or tissue – amounted to 1330 ng/mL in data set [3] (setting [8]); 1000 ng/mL in data set [3] (setting [9]); 225 ng/mL in data set [3] (setting [10]); 328 ng/mL in data set [3] (setting [11]); 362 ng/mL in data set [3] (setting [12]); 302 ng/mL in data set [3] (setting [13]). Besides, the Cmax in data set [7] (human, plasma, oral, dose levels 200 mg QD, 400 mg QD, 400 mg BID, 18 patients, read-out: Mean estimates of Cmax) was 233 ng/mL to 570 ng/mL and 880 nM to 2.3 µM. The “Time after ingestion up to which increased accumulation of acetylated histones could be detected” value in data set [4] is on record as “up to 10 hours”. The “Maximally tolerated dose for once daily oral administration” value in data set [5] came to 400 mg. In data set [6], the “Effect on development and continued growth of mammary tumors” value was “effective at inhibiting the development and continued growth”. The bioavailability in data set [7] (human, plasma, calculated from the AUCinf values after the IV infusion and oral routes, read-out: Bioavailable fraction of SAHA) was about 48%. The “Dose dependence of mean estimates of Cmax and AUCinf” value in data set [7] (oral, fasting or with food, 200 mg to 400 mg dose range) is listed as “increased proportionally with dose”.
